{"source": "PubChem BioAssay AID322", "about": "(DTP/NCI, 2004)", "tested_on": "CD2F1 mice, P388/ADR leukemia ip, median survival T/C", "assay": "NCI In Vivo Anticancer Drug Screen. Data for tumor model P388 Leukemia resistant to Adriamycin; NSC 123127, Developed at Scr 08 (intraperitoneal) in CD2F1 (CDF1) mice", "conditions": "endpoint: median survival time, higher = longer survival", "experimental": "The antitumor activity of compounds was measured in mice bearing transplantable tumors. Survival or tumor size were measured and the results are expressed as the measurement made in the treated group (T) divided by the measurement made in the vehicle treated control group (C). The tumor model used in this assay is P388 Leukemia resistant to Adriamycin; NSC 123127, Developed at Scr 08 (intraperitoneal) in CD2F1 (CDF1) mice", "key": {"[1]": {"conditions": "dose: 12.5 mg/kg/injection, schedule: Q01DX005 (ip), vehicle: saline with Tween-80"}, "[2]": {"conditions": "dose: 25.0 mg/kg/injection, schedule: Q01DX005 (ip), vehicle: saline with Tween-80"}, "[3]": {"conditions": "dose: 50.0 mg/kg/injection, schedule: Q01DX005 (ip), vehicle: saline with Tween-80"}, "[4]": {"conditions": "dose: 100.0 mg/kg/injection, schedule: Q01DX005 (ip), vehicle: saline"}}, "note": "Where “and” joins values, the source holds several entries; their conditions need not be identical. Identical values can stand only once. Inconclusive results and toxic doses are left out."}
{"smiles": "CC[C@]1(O)C[C@H]2CN(CCc3c([nH]c4ccccc34)[C@@](C(=O)OC)(c3cc4c(cc3OC)N(C)[C@H]3[C@@](O)(C(=O)OC)[C@H](OC(C)=O)[C@]5(CC)C=CCN6CC[C@]43[C@@H]65)C2)C1", "values": [{"measurement": "T/C", "setting": "dose: 0.5 mg/kg/injection, schedule: Q04DX003 (ip), vehicle: saline", "result": "101 % of control"}, {"measurement": "T/C", "setting": "dose: 1.0 mg/kg/injection, schedule: Q04DX003 (ip), vehicle: saline", "result": "100 % of control"}, {"measurement": "T/C", "setting": "dose: 2.0 mg/kg/injection, schedule: Q04DX003 (ip), vehicle: saline", "result": "100 % of control"}, {"measurement": "T/C", "setting": "dose: 4.0 mg/kg/injection, schedule: Q04DX003 (ip), vehicle: saline", "result": "83 % of control"}, {"measurement": "T/C", "setting": "dose: 8.0 mg/kg/injection, schedule: Q04DX003 (ip), vehicle: saline", "result": "57 % of control"}]}
{"smiles": "COc1ccc(C(C)c2cc3c(cc2OC)OCO3)cc1", "note": "(stereo unspecified)", "values": [{"measurement": "T/C", "setting": "[1]", "result": "105 % of control"}, {"measurement": "T/C", "setting": "[2]", "result": "109 % of control"}, {"measurement": "T/C", "setting": "[3]", "result": "119 % of control"}]}
{"smiles": "O=P1(N(CCCl)CCCl)NCCCO1", "note": "(stereo unspecified)", "values": [{"measurement": "T/C", "setting": "dose: 12.5 mg/kg/injection, schedule: Q01DX005 (ip), vehicle: saline", "result": "154 % of control"}, {"measurement": "T/C", "setting": "dose: 25.0 mg/kg/injection, schedule: Q01DX005 (ip), vehicle: saline", "result": "165 % of control and 189 % of control"}, {"measurement": "T/C", "setting": "dose: 50.0 mg/kg/injection, schedule: Q01DX005 (ip), vehicle: saline", "result": "191 % of control and 217 % of control"}, {"measurement": "T/C", "setting": "[4]", "result": "171 % of control and 309 % of control"}]}
{"smiles": "CC(=O)N(C)c1ccc(Nc2cc(C)[nH]c3ccc4ncnc4c23)cc1", "values": [{"measurement": "T/C", "setting": "dose: 30.0 mg/kg/injection, schedule: Q01DX005 (ip), vehicle: saline", "result": "98 % of control"}, {"measurement": "T/C", "setting": "dose: 44.0 mg/kg/injection, schedule: Q01DX005 (ip), vehicle: saline", "result": "114 % of control"}, {"measurement": "T/C", "setting": "[4]", "result": "122 % of control"}]}
{"smiles": "COc1cccc(Sc2ccc([N+](=O)[O-])c3no[n+]([O-])c23)c1", "values": [{"measurement": "T/C", "setting": "dose: 1.56 mg/kg/injection, schedule: Q01DX005 (ip), vehicle: saline with Tween-80", "result": "98 % of control"}, {"measurement": "T/C", "setting": "dose: 3.12 mg/kg/injection, schedule: Q01DX005 (ip), vehicle: saline with Tween-80", "result": "100 % of control"}, {"measurement": "T/C", "setting": "dose: 6.25 mg/kg/injection, schedule: Q01DX005 (ip), vehicle: saline with Tween-80", "result": "107 % of control"}, {"measurement": "T/C", "setting": "[1]", "result": "110 % of control"}, {"measurement": "T/C", "setting": "[2]", "result": "101 % of control"}]}
{"smiles": "COc1cc([C@@H]2c3cc4c(cc3[C@@H](OC3OC5COC(C)OC5C(O)C3O)[C@H]3COC(=O)[C@H]23)OCO4)cc(OC)c1O", "note": "(stereo partly specified)", "values": [{"measurement": "T/C", "setting": "dose: 18.0 mg/kg/injection, schedule: Q04DX003 (ip), vehicle: Klucel (hydroxypropylcellulose) (HPC)", "result": "113 % of control"}, {"measurement": "T/C", "setting": "dose: 27.0 mg/kg/injection, schedule: Q04DX003 (ip), vehicle: Klucel (hydroxypropylcellulose) (HPC)", "result": "119 % of control"}, {"measurement": "T/C", "setting": "dose: 40.0 mg/kg/injection, schedule: Q04DX003 (ip), vehicle: Klucel (hydroxypropylcellulose) (HPC)", "result": "110 % of control"}]}
{"smiles": "BrC[P+](CBr)(CBr)CBr", "values": [{"measurement": "T/C", "setting": "[3]", "result": "109 % of control and 119 % of control"}, {"measurement": "T/C", "setting": "dose: 100.0 mg/kg/injection, schedule: Q01DX005 (ip), vehicle: saline with Tween-80", "result": "115 % of control"}, {"measurement": "T/C", "setting": "dose: 144.0 mg/kg/injection, schedule: Q01DX005 (ip), vehicle: saline with Tween-80", "result": "111 % of control"}, {"measurement": "T/C", "setting": "dose: 240.0 mg/kg/injection, schedule: Q01DX005 (ip), vehicle: saline with Tween-80", "result": "112 % of control"}, {"measurement": "T/C", "setting": "dose: 666.67 mg/kg/injection, schedule: Q01DX005 (ip), vehicle: saline with Tween-80", "result": "166 % of control"}]}
{"smiles": "CSC1SCC2C(=O)N(C)C(C(C)C)C(=O)OCC(NC(=O)c3cnc4ccccc4n3)C(=O)NC(C)C(=O)N(C)C1C(=O)N(C)C(C(C)C)C(=O)OCC(NC(=O)c1cnc3ccccc3n1)C(=O)NC(C)C(=O)N2C", "note": "(stereo unspecified)", "values": [{"measurement": "T/C", "setting": "dose: 44.0 micrograms/kg/injection, schedule: Q01DX005 (ip), vehicle: saline", "result": "152 % of control"}, {"measurement": "T/C", "setting": "dose: 100.0 micrograms/kg/injection, schedule: Q01DX005 (ip), vehicle: saline", "result": "151 % of control"}, {"measurement": "T/C", "setting": "dose: 150.0 micrograms/kg/injection, schedule: Q01DX005 (ip), vehicle: saline", "result": "152 % of control"}]}
{"smiles": "O=C(O)Cc1cccc2c(=O)cc(-c3ccccc3)oc12", "values": [{"measurement": "T/C", "setting": "dose: 24.12 mg/kg/injection, schedule: Q01DX005 (ip), vehicle: saline", "result": "102 % of control"}, {"measurement": "T/C", "setting": "dose: 30.0 mg/kg/injection, schedule: Q01DX009 (ip), vehicle: saline", "result": "114 % of control"}, {"measurement": "T/C", "setting": "dose: 30.0 mg/kg/injection, schedule: Q01DX009 (ip), vehicle: sodium bicarbonate", "result": "124 % of control"}, {"measurement": "T/C", "setting": "dose: 40.2 mg/kg/injection, schedule: Q01DX005 (ip), vehicle: saline", "result": "118 % of control"}, {"measurement": "T/C", "setting": "dose: 44.0 mg/kg/injection, schedule: Q01DX009 (ip), vehicle: sodium bicarbonate", "result": "167 % of control"}, {"measurement": "T/C", "setting": "dose: 60.0 mg/kg/injection, schedule: Q04DX002 (ip), vehicle: sodium bicarbonate", "result": "118 % of control"}, {"measurement": "T/C", "setting": "dose: 67.0 mg/kg/injection, schedule: Q01DX009 (ip), vehicle: saline", "result": "187 % of control"}, {"measurement": "T/C", "setting": "dose: 67.0 mg/kg/injection, schedule: Q01DX009 (ip), vehicle: sodium bicarbonate", "result": "187 % of control and 237 % of control and 245 % of control"}, {"measurement": "T/C", "setting": "dose: 90.0 mg/kg/injection, schedule: Q04DX002 (ip), vehicle: sodium bicarbonate", "result": "118 % of control"}, {"measurement": "T/C", "setting": "dose: 100.0 mg/kg/injection, schedule: Q01DX009 (ip), vehicle: sodium bicarbonate", "result": "207 % of control and 240 % of control and 291 % of control"}, {"measurement": "T/C", "setting": "dose: 111.67 mg/kg/injection, schedule: Q01DX005 (ip), vehicle: saline", "result": "161 % of control"}, {"measurement": "T/C", "setting": "dose: 134.0 mg/kg/injection, schedule: Q04DX002 (ip), vehicle: sodium bicarbonate", "result": "112 % of control"}, {"measurement": "T/C", "setting": "dose: 150.0 mg/kg/injection, schedule: Q01DX009 (ip), vehicle: saline", "result": "104 % of control"}, {"measurement": "T/C", "setting": "dose: 150.0 mg/kg/injection, schedule: Q01DX009 (ip), vehicle: sodium bicarbonate", "result": "233 % of control and 260 % of control and 124 % of control"}, {"measurement": "T/C", "setting": "dose: 175.0 mg/kg/injection, schedule: Q01DX009 (ip), vehicle: sodium bicarbonate", "result": "103 % of control"}, {"measurement": "T/C", "setting": "dose: 186.12 mg/kg/injection, schedule: Q01DX005 (ip), vehicle: saline", "result": "164 % of control"}]}
{"smiles": "NC(N)=NS(=O)(=O)c1ccc(NCc2c3ccccc3nc3ccccc23)cc1", "values": [{"measurement": "T/C", "setting": "dose: 50.0 mg/kg/injection, schedule: Q04DX003 (ip), vehicle: Klucel (hydroxypropylcellulose) (HPC)", "result": "101 % of control"}, {"measurement": "T/C", "setting": "dose: 100.0 mg/kg/injection, schedule: Q04DX003 (ip), vehicle: Klucel (hydroxypropylcellulose) (HPC)", "result": "97 % of control"}, {"measurement": "T/C", "setting": "dose: 200.0 mg/kg/injection, schedule: Q04DX003 (ip), vehicle: Klucel (hydroxypropylcellulose) (HPC)", "result": "100 % of control"}, {"measurement": "T/C", "setting": "dose: 400.0 mg/kg/injection, schedule: Q04DX003 (ip), vehicle: Klucel (hydroxypropylcellulose) (HPC)", "result": "87 % of control"}]}
